Reference: patent US20220177819A1, “MICROFLUIDIC SYSTEM FOR INTRACELLULAR DELIVERY OF MATERIALS AND METHOD THEREFOR” (MxT BIOTECH, priority 2019, published 2022)

System: MDA-MB-231 cells
Test: DOX cytotoxicity after delivery of DOX-loaded MSNs, trypan blue exclusion
Format: cell-based
Details: DOX loaded into MSNs delivered by the microfluidic system, after 6 hours
Protocol: In the experiment, doxorubicin (DOX), an anticancer drug, was loaded into MSNs and the MSNs were delivered into MDA-MB-231 cells.
Referring to FIG. 31, DOX cytotoxicity to MDA-MB-231 cells was measured by the trypan blue exclusion method, and it can be seen that approximately 85% of cancer cells were killed after 6 hours.

In the case of `COc1cccc2c1C(=O)c1c(O)c3c(c(O)c1C2=O)C[C@@](O)(C(=O)CO)C[C@@H]3O[C@H]1C[C@H](N)[C@H](O)[C@H](C)O1` [DOX, doxorubicin], the cancer cells killed was “approximately 85%”.
